Experiments:
Human gammaherpesvirus 4 [1] = experiment: Inhibition of TPA-induced Epstein-Barr virus early antigen activation assessed as EBV-EA induction in Raji cells at 3.2 nM after 48 hrs relative to TPA; values are per cent of control; details: human gammaherpesvirus 4, Raji
Human gammaherpesvirus 4 [2] = experiment: Inhibition of TPA-induced Epstein-Barr virus early antigen activation assessed as EBV-EA induction in Raji cells at 320 nM after 48 hrs relative to TPA; values are per cent of control; details: human gammaherpesvirus 4, Raji
Human gammaherpesvirus 4 [3] = experiment: Inhibition of TPA-induced Epstein-Barr virus early antigen activation assessed as EBV-EA induction in Raji cells at 32 nM after 48 hrs relative to TPA; values are per cent of control; details: human gammaherpesvirus 4, Raji
[4] = Scavenging activity against NO generation in human Chang liver cells assessed as inhibition of NOR1-activation at 350 nM relative to NOR1; format: functional
Raji = experiment: Cell viability of Raji cells at 320 nM; format: functional, Homo sapiens
Human gammaherpesvirus 4 [5] = experiment: Inhibition of TPA-induced Epstein-Barr virus early antigen activation assessed as EBV-EA induction in Raji cells at 0.32 nM after 48 hrs relative to TPA; values are per cent of control; details: human gammaherpesvirus 4, Raji
Human gammaherpesvirus 4 [6] = experiment: Inhibition of TPA-induced Epstein-Barr virus early antigen activation in Raji cells after 48 hrs; format: functional, organism-based; details: human gammaherpesvirus 4, Raji

| Structure (SMILES) | level, % of control at 0.0032 µM (Human gammaherpesvirus 4 [1]) [%] | level, % of control at 0.32 µM (Human gammaherpesvirus 4 [2]) [%] | level, % of control at 0.032 µM (Human gammaherpesvirus 4 [3]) [%] | Activity [4] | Activity (Raji) [%] | level, % of control at 0.00032 µM (Human gammaherpesvirus 4 [5]) [%] | IC50 (Human gammaherpesvirus 4 [6]) [nM] |
| --- | --- | --- | --- | --- | --- | --- | --- |
| CC(C)CCC[C@@H](C)[C@H]1CC[C@@]2(C)[C@@H]3CC[C@H]4C[C@@H](O)CC[C@@]45C[C@@]35CC[C@]12C [POLLINASTANOL] | 73.1 | 0 | 31.7 | 1.5 | 70 | 95.9 | 9.9 |
| COc1cc(/C=C/C(=O)O[C@H]2CC[C@]34C[C@]35CC[C@]3(C)[C@@H]([C@H](C)CCC=C(C)C)CC[C@@]3(C)[C@@H]5CC[C@H]4C2(C)C)ccc1O [GAMMA ORYZANOL] | 84.7 | 19.7 | 56 | 1.5 | 70 | 100 | 15.9 |
| C=C(CC[C@@H](C)[C@H]1CC[C@@]2(C)[C@@H]3CC[C@H]4[C@@H](C)C(=O)CC[C@@]45C[C@@]35CC[C@]12C)C(C)C | 73.6 | 0 | 32.7 | 1.5 | 70 | 95.1 | 10.2 |
| C[C@H](CCC(O)C(C)(C)O)[C@H]1CC[C@@]2(C)[C@@H]3CC[C@H]4C(C)(C)C(=O)CC[C@@]45C[C@@]35CC[C@]12C (stereo partly specified) | 66.8 | 0 | 19.1 | 2 | 70 | 88.4 | 7.4 |
| C[C@@H]1[C@@H](O)CC[C@]23C[C@]24CC[C@]2(C)[C@@H]([C@H](C)CC[C@H](O)C(C)(C)O)CC[C@@]2(C)[C@@H]4CC[C@@H]13 | 61.3 | 0 | 17.1 | 1.7 | 70 | 88.8 | 6.7 |
| C=C(CC[C@@H](C)[C@H]1CC[C@@]2(C)[C@@H]3CC[C@H]4[C@H](C)[C@@H](OC(=O)/C=C/c5ccc(O)c(OC)c5)CC[C@@]45C[C@@]35CC[C@]12C)C(C)C [CYCLOEUCALENOL FERULATE] | 81.5 | 14.2 | 53.2 | 1.5 | 70 | 100 | 15.5 |
| C=C(CC[C@@H](C)[C@H]1CC[C@@]2(C)[C@@H]3CC[C@H]4[C@H](C)[C@H](O)CC[C@@]45C[C@@]35CC[C@]12C)C(C)C | 73.1 | 0 | 30.5 | 1.6 | 70 | 95.9 | 9.4 |
| C/C(=C\C[C@@H](C)[C@H]1CC[C@@]2(C)[C@@H]3CC[C@H]4C(C)(C)[C@@H](O)CC[C@@]45C[C@@]35CC[C@]12C)C(C)C [(23E)-CYCLOSADOL] | 72.8 | 0 | 31.4 | 2 | 70 | 95.2 | 9.9 |
| CC(C)=CCC[C@@H](C)C1=CC[C@@]2(C)[C@@H]3CC[C@H]4C(C)(C)[C@@H](O)CC[C@@]45C[C@@]35CC[C@]12C [CIMICIFUGENOL] | 72.6 | 0 | 26.8 | 1.8 | 70 | 93.8 | 9 |
| C=C(CC[C@@H](C)[C@H]1CC[C@@]2(C)[C@@H]3CC[C@H]4C[C@@H](OC(C)=O)CC[C@@]45C[C@@]35CC[C@]12C)C(C)C | 73.1 | 0 | 31.4 | 1.5 | 70 | 96.3 | 10 |
| C=C(C)[C@H](O)CC[C@@H](C)[C@H]1CC[C@@]2(C)[C@@H]3CC[C@H]4C(C)(C)[C@@H](O)CC[C@@]45C[C@@]35CC[C@]12C | 57.8 | 0 | 15 | 2 | 70 | 84.4 | 6.4 |
| C=C(CC[C@@H](C)[C@H]1CC[C@@]2(C)[C@@H]3CC[C@H]4[C@H](C)C(=O)CC[C@@]45C[C@@]35CC[C@]12C)C(C)C [CYCLOEUCALENONE] | 74 | 0 | 33.4 | 1.5 | 70 | 96.2 | 10.3 |
| CC(=O)O[C@@H]1CC[C@]23C[C@]24CC[C@]2(C)[C@@H]([C@H](C)CCC=C(C)C)CC[C@@]2(C)[C@@H]4CC[C@H]3C1(C)C | 73.1 | 0 | 33.2 | 1.6 | 70 | 96 | 10.2 |
| C=C(CC[C@@H](C)[C@H]1CC[C@@]2(C)[C@@H]3CC[C@H]4C[C@@H](O)CC[C@@]45C[C@@]35CC[C@]12C)C(C)C | 72.7 | 0 | 30.5 | 1.5 | 70 | 95.8 | 9.5 |
| C=C(C)[C@@H](C)CC[C@@H](C)[C@H]1CC[C@@]2(C)[C@@H]3CC[C@H]4C(C)(C)[C@@H](O)CC[C@@]45C[C@@]35CC[C@]12C [CYCLOLAUDENOL (24S)] | 70 | 0 | 30.6 | 1.8 | 70 | 93.6 | 8.9 |
| C=C(CC[C@@H](C)[C@H]1CC[C@@]2(C)[C@@H]3CC[C@H]4C(C)(C)C(=O)CC[C@@]45C[C@@]35CC[C@]12C)C(C)C | 73.5 | 3.1 | 26.4 | 1.9 | 70 | 96.1 | 9.2 |
| CC(=O)O[C@H]1CC[C@]23C[C@]24CC[C@]2(C)[C@@H]([C@H](C)CCC=C(C)C)CC[C@@]2(C)[C@@H]4CC[C@H]3C1(C)C [CYCLOARTENOL ACETATE] | 73.1 | 0 | 32.3 | 1.8 | 70 | 96.9 | 10.1 |
| COC(C)(C)[C@@H](O)CC[C@@H](C)[C@H]1CC[C@@]2(C)[C@@H]3CC[C@H]4C(C)(C)[C@@H](O)CC[C@@]45C[C@@]35CC[C@]12C | 74.5 | 0 | 30.7 | 1.8 | 70 | 95.9 | 9.5 |
